Experimental data reported in PubChem BioAssay AID1919010 (Molecular Pharmacology Branch, DTP, NCI, 2023).

System: Hs578T complex spheroid growth, percent test/control
Assay: Anticancer human tumor Hs578T cell line growth inhibition [AhR];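 also: luminescent viability signal as a proxy for spheroid growth; spheroids exposed to agents for one week after three days of growth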
Conditions: for IC50: curve of first compound; for viability, T/C: stronger effect = lower value
Method in brief: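 Agents were dosed in half-log steps down from roughly clinical Cmax, or from 10 microM where Cmax was unknown, alone and with AhR antagonists. Read-out: percent test/control growth of tumor spheroids containing HUVEC and MSC stromal cells.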

[1] = second compound 0.1 µM, first compound 0.0316 µM
[2] = second compound 0.1 µM, first compound 0.1 µM
[3] = second compound 0.1 µM, first compound 0.316 µM
[4] = second compound 0.1 µM, first compound 1 µM
[5] = second compound 0.1 µM, first compound 3.16 µM
[6] = second compound 0.1 µM, first compound 10 µM
[7] = second compound 0.316 µM, first compound 0.0316 µM
[8] = second compound 0.316 µM, first compound 0.1 µM
[9] = second compound 0.316 µM, first compound 0.316 µM
[10] = second compound 0.316 µM, first compound 1 µM
[11] = second compound 0.316 µM, first compound 3.16 µM
[12] = second compound 0.316 µM, first compound 10 µM
[13] = second compound 1 µM, first compound 0.0316 µM
[14] = second compound 1 µM, first compound 0.1 µM
[15] = second compound 1 µM, first compound 0.316 µM
[16] = second compound 1 µM, first compound 1 µM
[17] = second compound 1 µM, first compound 3.16 µM
[18] = second compound 1 µM, first compound 10 µM
[19] = second compound 3.16 µM, first compound 0.0316 µM
[20] = second compound 3.16 µM, first compound 0.1 µM
[21] = second compound 3.16 µM, first compound 0.316 µM
[22] = second compound 3.16 µM, first compound 1 µM
[23] = second compound 3.16 µM, first compound 3.16 µM
[24] = second compound 3.16 µM, first compound 10 µM
[25] = second compound 10 µM, first compound 0.0316 µM
[26] = second compound 10 µM, first compound 0.1 µM
[27] = second compound 10 µM, first compound 0.316 µM
[28] = second compound 10 µM, first compound 1 µM
[29] = second compound 10 µM, first compound 3.16 µM
[30] = second compound 10 µM, first compound 10 µM

With CC(C)c1c(-c2ccccc2)nc2c(C#N)c[nH]n2c1=O + Cc1ccccc1N=Nc1ccc(NC(=O)c2ccnn2C)c(C)c1 the IC50 (second compound 0.1 µM) was greater than 10 µM, the IC50 (second compound 0.316 µM) was greater than 10 µM and the IC50 (second compound 1 µM) was greater than 10 µM. For the same compound, the IC50 (second compound 3.16 µM) was greater than 10 µM, the IC50 (second compound 10 µM) was greater than 10 µM and the viability, T/C [1] was 102%. The viability, T/C [2] was 99.4%, the viability, T/C [3] was 108% and the viability, T/C [4] was 103%. It also gave a viability, T/C [5] of 91.4%, a viability, T/C [6] of 100% and a viability, T/C [7] of 105%. The viability, T/C [8] was 113%, the viability, T/C [9] was 119% and the viability, T/C [10] was 99%. It also gave a viability, T/C [11] of 112%, a viability, T/C [12] of 104% and a viability, T/C [13] of 103%. For the same compound, the viability, T/C [14] was 103%, the viability, T/C [15] was 106% and the viability, T/C [16] was 101%. It also gave a viability, T/C [17] of 105%, a viability, T/C [18] of 96.6% and a viability, T/C [19] of 96%. The viability, T/C [20] was 94.7%, the viability, T/C [21] was 97.1% and the viability, T/C [22] was 88.1%. For the same compound, the viability, T/C [23] was 91.1%, the viability, T/C [24] was 96% and the viability, T/C [25] was 64.4%. For the same compound, the viability, T/C [26] was 66%, the viability, T/C [27] was 70.1% and the viability, T/C [28] was 71.2%. It also gave a viability, T/C [29] of 69.4% and a viability, T/C [30] of 67.6%.

With CC1COCCN1c1cc(-c2ccnn2C)c2ccnc(-c3ccn[nH]3)c2n1 (stereo not given) + Cc1ccccc1N=Nc1ccc(NC(=O)c2ccnn2C)c(C)c1 the IC50 (second compound 0.1 µM) was 0.315 µM, the IC50 (second compound 0.316 µM) was 0.292 µM and the IC50 (second compound 1 µM) was 0.266 µM. The IC50 (second compound 3.16 µM) was 0.283 µM, the IC50 (second compound 10 µM) was 0.182 µM and the viability, T/C (second compound 0.1 µM, first compound 0.00316 µM) was 107%. The viability, T/C (second compound 0.1 µM, first compound 0.01 µM) was 109%, the viability, T/C [1] was 97% and the viability, T/C [2] was 80.8%. It also gave a viability, T/C [3] of 48.9%, a viability, T/C [4] of 35% and a viability, T/C (second compound 0.316 µM, first compound 0.00316 µM) of 105%. It also gave a viability, T/C (second compound 0.316 µM, first compound 0.01 µM) of 128%, a viability, T/C [7] of 109% and a viability, T/C [8] of 88%. The viability, T/C [9] was 46.6%, the viability, T/C [10] was 39.1% and the viability, T/C (second compound 1 µM, first compound 0.00316 µM) was 106%. The viability, T/C (second compound 1 µM, first compound 0.01 µM) was 109%, the viability, T/C [13] was 109% and the viability, T/C [14] was 85.6%. It also gave a viability, T/C [15] of 44.2%, a viability, T/C [16] of 32.1% and a viability, T/C (second compound 3.16 µM, first compound 0.00316 µM) of 106%. The viability, T/C (second compound 3.16 µM, first compound 0.01 µM) was 97.5%, the viability, T/C [19] was 89.7% and the viability, T/C [20] was 78%. It also gave a viability, T/C [21] of 43.5%, a viability, T/C [22] of 37% and a viability, T/C (second compound 10 µM, first compound 0.00316 µM) of 69.1%. It also gave a viability, T/C (second compound 10 µM, first compound 0.01 µM) of 64.7%, a viability, T/C [25] of 65% and a viability, T/C [26] of 59.8%. The viability, T/C [27] was 40.1% and the viability, T/C [28] was 41.9%.

With COc1ccc([C@@H](O)c2cc(-c3ncnc4cc(N5CCOCC5)ccc34)c(F)cc2Cl)nn1 + Cc1ccccc1N=Nc1ccc(NC(=O)c2ccnn2C)c(C)c1 the IC50 (second compound 0.1 µM) was 3.4 µM, the IC50 (second compound 0.316 µM) was 4.79 µM and the IC50 (second compound 1 µM) was 3.33 µM. It also gave an IC50 (second compound 3.16 µM) of 2.87 µM, an IC50 (second compound 10 µM) of 3.08 µM and a viability, T/C [1] of 106%. For the same compound, the viability, T/C [2] was 112%, the viability, T/C [3] was 92.8% and the viability, T/C [4] was 82.6%. It also gave a viability, T/C [5] of 49.5%, a viability, T/C [6] of 32.2% and a viability, T/C [7] of 116%. The viability, T/C [8] was 108%, the viability, T/C [9] was 99.4% and the viability, T/C [10] was 89.8%. For the same compound, the viability, T/C [11] was 58.4%, the viability, T/C [12] was 31.8% and the viability, T/C [13] was 107%. It also gave a viability, T/C [14] of 106%, a viability, T/C [15] of 100% and a viability, T/C [16] of 80.3%. The viability, T/C [17] was 50.8%, the viability, T/C [18] was 34.5% and the viability, T/C [19] was 98.7%. It also gave a viability, T/C [20] of 93.2%, a viability, T/C [21] of 86.9% and a viability, T/C [22] of 77.8%. It also gave a viability, T/C [23] of 46.1%, a viability, T/C [24] of 30.5% and a viability, T/C [25] of 74.3%. For the same compound, the viability, T/C [26] was 68.2%, the viability, T/C [27] was 73.9% and the viability, T/C [28] was 63.1%. It also gave a viability, T/C [29] of 50.1% and a viability, T/C [30] of 32.9%.

Work on O=C(C=Cn1cnc(-c2cc(C(F)(F)F)cc(C(F)(F)F)c2)n1)NNc1cnccn1 + Cc1ccccc1N=Nc1ccc(NC(=O)c2ccnn2C)c(C)c1 yielded an IC50 (second compound 0.1 µM) of 0.177 µM, an IC50 (second compound 0.316 µM) of 0.184 µM and an IC50 (second compound 1 µM) of 0.165 µM. The IC50 (second compound 3.16 µM) was 0.171 µM, the IC50 (second compound 10 µM) was 0.0845 µM and the viability, T/C (second compound 0.1 µM, first compound 0.00949 µM) was 85%. It also gave a viability, T/C (second compound 0.1 µM, first compound 0.03 µM) of 90.5%, a viability, T/C (second compound 0.1 µM, first compound 0.0949 µM) of 72.8% and a viability, T/C (second compound 0.1 µM, first compound 0.3 µM) of 30.3%. It also gave a viability, T/C (second compound 0.1 µM, first compound 0.949 µM) of 11.2%, a viability, T/C (second compound 0.1 µM, first compound 3 µM) of 10.7% and a viability, T/C (second compound 0.316 µM, first compound 0.00949 µM) of 91.6%. It also gave a viability, T/C (second compound 0.316 µM, first compound 0.03 µM) of 88.5%, a viability, T/C (second compound 0.316 µM, first compound 0.0949 µM) of 76.9% and a viability, T/C (second compound 0.316 µM, first compound 0.3 µM) of 30.3%. It also gave a viability, T/C (second compound 0.316 µM, first compound 0.949 µM) of 8.26%, a viability, T/C (second compound 0.316 µM, first compound 3 µM) of 10.9% and a viability, T/C (second compound 1 µM, first compound 0.00949 µM) of 87%. The viability, T/C (second compound 1 µM, first compound 0.03 µM) was 82.5%, the viability, T/C (second compound 1 µM, first compound 0.0949 µM) was 68.8% and the viability, T/C (second compound 1 µM, first compound 0.3 µM) was 30.2%. The viability, T/C (second compound 1 µM, first compound 0.949 µM) was 10.4%, the viability, T/C (second compound 1 µM, first compound 3 µM) was 13.2% and the viability, T/C (second compound 3.16 µM, first compound 0.00949 µM) was 84%. The viability, T/C (second compound 3.16 µM, first compound 0.03 µM) was 79.8%, the viability, T/C (second compound 3.16 µM, first compound 0.0949 µM) was 70.7% and the viability, T/C (second compound 3.16 µM, first compound 0.3 µM) was 30.8%. For the same compound, the viability, T/C (second compound 3.16 µM, first compound 0.949 µM) was 9.79%, the viability, T/C (second compound 3.16 µM, first compound 3 µM) was 13% and the viability, T/C (second compound 10 µM, first compound 0.00949 µM) was 68%. The viability, T/C (second compound 10 µM, first compound 0.03 µM) was 64.2%, the viability, T/C (second compound 10 µM, first compound 0.0949 µM) was 47% and the viability, T/C (second compound 10 µM, first compound 0.3 µM) was 29.6%. It also gave a viability, T/C (second compound 10 µM, first compound 0.949 µM) of 11.9% and a viability, T/C (second compound 10 µM, first compound 3 µM) of 12.1%.
